In series [1] the test system is HBV. The experiment in a line: HepAD38 antiviral assay: reduction of viral product accumulation (virion DNA by qPCR, HBsAg or HBeAg by ELISA). It is filed as cell-based, hepatitis B virus. The following applies: Hepatitis B virus, 120 h; HepAD38 cells, five days after compound addition; 50% reduction of viral product vs no drug controls; read-out: HepAD38 EC50. The gist of the method:
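Tetracycline-free HepAD38 cells exposed to compound (DMSO stock diluted 1:200) for 5 days, or 8 days with media and compound refreshed on d2 and d5. Virion DNA quantified by qPCR after lysis; HBsAg or HBeAg measured by ELISA on diluted samples.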
For orientation: Quantitative PCR measures a nucleic acid by following its amplification.

A short description of series [2]: Compound toxicity by ATPLite (total ATP levels). It is filed as cell-based. To be noted: human, three days after compound addition, 50% reduction of total ATP.

For five compounds, EC50 and CC50 results are on record in patent US11596611B2, “Hepatitis B antiviral agents” (ENANTA PHARMACEUTICALS, INC., priority 2017, dated 2023).

Each structure is given as a SMILES string.

Broadly, the EC50 is the concentration needed to bring the measured effect to its halfway point. By CC50 is commonly meant the concentration that lowers cell viability or growth by half. The low end stands for harm at low concentration, the high end for better tolerance by the cells. For `C[C@@H](O)COC[C@]1(O)C2CCC1C[C@@H](S(=O)(=O)c1cc(C(=O)Nc3ccc(F)c(F)c3)ccc1Cl)C2` [Example 177], the concentration giving a half-maximal response (EC50) in series [1] was less than 0.104 µM. In series [2] (numeric bounds), this compound came in with a CC50 at 3 days of more than 6.25 µM.
On the same counts, the results for `C[C@@H](O)CNC(=O)C[C@]1(O)C2CCC1C[C@@H](S(=O)(=O)c1cc(C(=O)Nc3cc(F)c(F)c(F)c3)ccc1Cl)C2` [Example 113] are less than 0.104 µM and more than 6.25 µM.
Consider `O=C(Nc1ccc(F)c(F)c1)c1ccc(Cl)c(S(=O)(=O)[C@H]2CC3CCC(C2)[C@]3(O)C(O)c2ccc(F)cn2)c1` (stereo partly shown) [Example 291], for which the EC50 in series [1] is less than 0.104 µM. Further, in series [2] (class symbols), the CC50 at 3 days was more than 25 µM.
As for `C[C@H](O)COC[C@]1(O)C2CCC1C[C@@H](S(=O)(=O)c1cc(C(=O)Nc3cc(F)c(F)c(F)c3)ccc1Cl)C2` [Example 131], the concentration giving a half-maximal response (EC50) in series [1] is less than 0.104 µM. In series [2] (numeric bounds), the 50% cytotoxic concentration (CC50) at 3 days is more than 12.5 µM.
For `O=C(Nc1cc(F)c(F)c(F)c1)c1ccc(Cl)c(S(=O)(=O)[C@H]2CC3CCC(C2)[C@@]3(O)C(O)CO)c1` (mixture of isomers) [Example 10] the same measures were less than 0.104 µM and more than 12.5 µM.
